Measured values as given in patent US11000033B2, “Ketone or oxime compound, and herbicide” (NISSAN CHEMICAL CORPORATION, priority 2014, dated 2021).

Tests used:
Type in all cases: in vivo
Abutilon theophrasti = assay: Test Example 4: herbicidal effect by soil treatment (symbol M); details: application herbicide amount 320 g/ha
Outline: (§1)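 Seeds were sown in sterilized diluvial soil, covered with about 1.5 cm of soil, and the soil surface was sprayed with a water-diluted emulsion of the compound at a predetermined rate. Plants grew in a greenhouse at 25° C. to 30° C.; effects were scored visually 3 weeks after application.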

Avena fatua [1] = assay: Test Example 5: herbicidal effect by foliage application, plastic box (symbol I); details: 320 g/ha, 3 weeks after application
Outline: (§2)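 Visual herbicidal score, taken three weeks post-application, of seedlings sprayed on the foliage with water-diluted emulsion at a predetermined amount; plants were 14 days old, greenhouse-raised at 25° C. to 30° C.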

Galium spurium = assay: Test Example 4: herbicidal effect by soil treatment (symbol Q); details: application herbicide amount 320 g/ha
Outline: as §1

Lolium multiflorum Lam. = assay: Test Example 4: herbicidal effect by soil treatment (symbol K); details: application herbicide amount 320 g/ha
Outline: as §1

[2] = test system: Echinochloa oryzacola Vasing.; assay: Test Example 2: herbicidal activity, application during weed generation in submerged conditions (symbol A); details: Table 23; application herbicide amount 320 g/ha; grade 0-5 by criteria of Test Example 1
Outline: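 Compound was applied as a water-diluted emulsion into the standing water of flooded pots (4 cm) once co-sown weeds reached one to two leaves. Greenhouse temperature was 25° C. to 30° C., soil was alluvial, and each species was rated visually after 3 weeks.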

rice = assay: Test Example 4: effect on crop by soil treatment (symbol b); details: application herbicide amount 320 g/ha
Outline: (§3)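 Grown at 25° C. to 30° C. in a greenhouse, the crops came from seed sown spot-wise in sterilized diluvial soil under roughly 1.5 cm of covering soil.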

Alopecurus myosuroides = assay: Test Example 4: herbicidal effect by soil treatment (symbol J); details: application herbicide amount 320 g/ha
Outline: as §1

Stellaria media = assay: Test Example 5: herbicidal effect by foliage application, plastic box (symbol P); details: 320 g/ha, 3 weeks after application
Outline: as §2

Leptochloa chinensis = assay: Test Example 3: herbicidal effect by foliage application, Wagner pot (symbol D); details: application herbicide amount 320 g/ha
Outline: (§4)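 In a shallow-flooded alluvial soil system held at 25–30 °C, plants including rice grew for 14 days and were then sprayed over the foliage with emulsion diluted to a fixed herbicide amount. Visual rating followed at 3 weeks.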

[3] = test system: directly sowed rice plant; assay: Test Example 3: effect on crop by foliage application, Wagner pot (symbol b); details: application herbicide amount 320 g/ha
Outline: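 Wagner pot (1/10000 are), alluvial soil, submerged 0.1–0.5 cm; sown E. crus-galli var. crus-galli, L. chinensis, C. difformis, rice; greenhouse 25–30 °C.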

Setaria viridis = assay: Test Example 4: herbicidal effect by soil treatment (symbol G); details: application herbicide amount 320 g/ha
Outline: as §1

corn = assay: Test Example 5: effect on crop by foliage application, plastic box (symbol c); details: 320 g/ha, 3 weeks after application
Outline: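 Foliage-application test plants come from spot sowing in sterilized diluvial soil under a soil layer of about 1.5 cm, grown at 25° C. to 30° C. in a greenhouse.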

Amaranthus retroflexus = assay: Test Example 4: herbicidal effect by soil treatment (symbol N); details: application herbicide amount 320 g/ha
Outline: as §1

wheat = assay: Test Example 4: effect on crop by soil treatment (symbol e); details: application herbicide amount 320 g/ha
Outline: as §3

Chenopodium album [4] = assay: Test Example 4: herbicidal effect by soil treatment (symbol O); details: application herbicide amount 320 g/ha
Outline: as §1

Avena fatua [5] = assay: Test Example 4: herbicidal effect by soil treatment (symbol I); details: application herbicide amount 320 g/ha
Outline: as §1

Chenopodium album [6] = assay: Test Example 5: herbicidal effect by foliage application, plastic box (symbol O); details: 320 g/ha, 3 weeks after application
Outline: as §2

Cyperus difformis = assay: Test Example 3: herbicidal effect by foliage application, Wagner pot (symbol E); details: application herbicide amount 320 g/ha
Outline: as §4

SMILES | Herbicidal effect grade, M: Abutilon theophrasti (Abutilon theophrasti) | I: Avena fatua, herbicidal effect (criteria of Test Example 1) (Avena fatua [1]) | Herbicidal effect grade, Q: Galium spurium (Galium spurium) | Herbicidal effect grade, K: Lolium multiflorum Lam. (Lolium multiflorum Lam.) | Herbicidal effect grade, A: Echinochloa oryzacola Vasing. [2] | Effect on crop grade, b: directly sowed rice plant (rice) | Herbicidal effect grade, J: Alopecurus myosuroides (Alopecurus myosuroides) | P: Stellaria media, herbicidal effect (criteria of Test Example 1) (Stellaria media) | herbicidal effect on D (Leptochloa chinensis), grade 0-5 (Leptochloa chinensis) | effect on crop b (directly sowed rice plant), grade 0-5 [3] | Herbicidal effect grade, G: Setaria viridis (Setaria viridis) | c: corn, effect on crop (criteria of Test Example 1) (corn) | Herbicidal effect grade, N: Amaranthus retroflexus (Amaranthus retroflexus) | Effect on crop grade, e: wheat (wheat) | Herbicidal effect grade, O: Chenopodium album (Chenopodium album [4]) | Herbicidal effect grade, I: Avena fatua (Avena fatua [5]) | O: Chenopodium album, herbicidal effect (criteria of Test Example 1) (Chenopodium album [6]) | herbicidal effect on E, grade 0-5 (Cyperus difformis) | M: Abutilon theophrasti, herbicidal effect grade (Abutilon theophrasti) | Q: Galium spurium, herbicidal effect grade (Galium spurium) | also measured
CON=C(C)CC1CC(OC(=O)N2CCCCC2)=C(c2c(C)cc(C)cc2OC)C1=O (centres unmarked) [6-111] | 0 (Herbicidal ratio of 5% or lower (almost no effect)) | 5 (Herbicidal ratio of 90% or more (almost completely withered)) | 0 (Herbicidal ratio of 5% or lower (almost no effect)) | 5 (Herbicidal ratio of 90% or more (almost completely withered)) | 5 (Herbicidal ratio of 90% or more (almost completely withered)) | 1 (Herbicidal ratio of 5% or higher and lower than 20%) | 5 (Herbicidal ratio of 90% or more (almost completely withered)) | 1 (Herbicidal ratio of 5% or higher and lower than 20%) | 5 (Herbicidal ratio of 90% or more (almost completely withered)) | 5 (Herbicidal ratio of 90% or more (almost completely withered)) | 0 (Herbicidal ratio of 5% or lower (almost no effect)) | 5 (Herbicidal ratio of 90% or more (almost completely withered)) | 0 (Herbicidal ratio of 5% or lower (almost no effect)) | 0 (Herbicidal ratio of 5% or lower (almost no effect)) | 0 (Herbicidal ratio of 5% or lower (almost no effect)) | 0 (Herbicidal ratio of 5% or lower (almost no effect)) | 0 (Herbicidal ratio of 5% or lower (almost no effect)) | – | – | – | –
CC(=O)CC1CC(O)=C(c2c(C)cc(Oc3ccc(C(F)(F)F)cn3)cc2C)C1=O (centres unmarked) [7-019] | 0 (Herbicidal ratio of 5% or lower (almost no effect)) | 0 (Herbicidal ratio of 5% or lower (almost no effect)) | 0 (Herbicidal ratio of 5% or lower (almost no effect)) | 0 (Herbicidal ratio of 5% or lower (almost no effect)) | – | 0 (Herbicidal ratio of 5% or lower (almost no effect)) | 0 (Herbicidal ratio of 5% or lower (almost no effect)) | 0 (Herbicidal ratio of 5% or lower (almost no effect)) | 4 (Herbicidal ratio of 70% or higher and lower than 90%) | 3 (Herbicidal ratio of 40% or higher and lower than 70%) | 2 (Herbicidal ratio of 20% or higher and lower than 40%) | 2 (Herbicidal ratio of 20% or higher and lower than 40%) | 0 (Herbicidal ratio of 5% or lower (almost no effect)) | 0 (Herbicidal ratio of 5% or lower (almost no effect)) | 0 (Herbicidal ratio of 5% or lower (almost no effect)) | 0 (Herbicidal ratio of 5% or lower (almost no effect)) | 0 (Herbicidal ratio of 5% or lower (almost no effect)) | 2 (Herbicidal ratio of 20% or higher and lower than 40%) | – | – | –
CCc1cc(-c2ccc(Cl)cc2)cc(C)c1C1=C(OC(=O)N2CCOCC2)CC(CC(C)=NOC)C1=O (mixture of isomers) [6-064] | – | 5 (Herbicidal ratio of 90% or more (almost completely withered)) | – | – | 4 (Herbicidal ratio of 70% or higher and lower than 90%) | – | – | 0 (Herbicidal ratio of 5% or lower (almost no effect)) | 5 (Herbicidal ratio of 90% or more (almost completely withered)) | 4 (Herbicidal ratio of 70% or higher and lower than 90%) | – | 5 (Herbicidal ratio of 90% or more (almost completely withered)) | – | – | – | – | – | 0 (Herbicidal ratio of 5% or lower (almost no effect)) | 0 (Herbicidal ratio of 5% or lower (almost no effect)) | 0 (Herbicidal ratio of 5% or lower (almost no effect)) | K: Lolium multiflorum Lam., herbicidal effect grade (Lolium multiflorum Lam.): 0 (Herbicidal ratio of 5% or lower (almost no effect)); b: directly sowed rice plant, effect on crop grade (rice): 0 (Herbicidal ratio of 5% or lower (almost no effect)); J: Alopecurus myosuroides, herbicidal effect grade (Alopecurus myosuroides): 4 (Herbicidal ratio of 70% or higher and lower than 90%); G: Setaria viridis, herbicidal effect grade (Setaria viridis): 5 (Herbicidal ratio of 90% or more (almost completely withered)); N: Amaranthus retroflexus, herbicidal effect grade (Amaranthus retroflexus): 0 (Herbicidal ratio of 5% or lower (almost no effect)); e: wheat, effect on crop grade (wheat): 0 (Herbicidal ratio of 5% or lower (almost no effect)); O: Chenopodium album, herbicidal effect grade (Chenopodium album [4]): 0 (Herbicidal ratio of 5% or lower (almost no effect)); I: Avena fatua, herbicidal effect grade (Avena fatua [5]): 0 (Herbicidal ratio of 5% or lower (almost no effect))
CON=C(C)CC1CC(OC(=O)N(C)C)=C(c2c(C)cc(-c3ccc(Cl)cc3)cc2C)C1=O (mixture of isomers) [6-063] | – | 5 (Herbicidal ratio of 90% or more (almost completely withered)) | – | – | 2 (Herbicidal ratio of 20% or higher and lower than 40%) | – | – | 0 (Herbicidal ratio of 5% or lower (almost no effect)) | 5 (Herbicidal ratio of 90% or more (almost completely withered)) | 5 (Herbicidal ratio of 90% or more (almost completely withered)) | – | 5 (Herbicidal ratio of 90% or more (almost completely withered)) | – | – | – | – | – | 1 (Herbicidal ratio of 5% or higher and lower than 20%) | 0 (Herbicidal ratio of 5% or lower (almost no effect)) | 0 (Herbicidal ratio of 5% or lower (almost no effect)) | K: Lolium multiflorum Lam., herbicidal effect grade (Lolium multiflorum Lam.): 0 (Herbicidal ratio of 5% or lower (almost no effect)); b: directly sowed rice plant, effect on crop grade (rice): 0 (Herbicidal ratio of 5% or lower (almost no effect)); J: Alopecurus myosuroides, herbicidal effect grade (Alopecurus myosuroides): 0 (Herbicidal ratio of 5% or lower (almost no effect)); G: Setaria viridis, herbicidal effect grade (Setaria viridis): 1 (Herbicidal ratio of 5% or higher and lower than 20%); N: Amaranthus retroflexus, herbicidal effect grade (Amaranthus retroflexus): 0 (Herbicidal ratio of 5% or lower (almost no effect)); e: wheat, effect on crop grade (wheat): 0 (Herbicidal ratio of 5% or lower (almost no effect)); O: Chenopodium album, herbicidal effect grade (Chenopodium album [4]): 0 (Herbicidal ratio of 5% or lower (almost no effect)); I: Avena fatua, herbicidal effect grade (Avena fatua [5]): 0 (Herbicidal ratio of 5% or lower (almost no effect))
